Laboratory results from patent US20050075399A1, “Methods and kits for enhancing ability to learn in a puppy or kitten” (The Procter & Gamble Company, priority 2003, published 2005).

Key:
Assay type in all cases: in vivo
purebred beagle puppies [1] = assay: Three-door multiple shape testing (symbol as the cue); settings: for puppies that passed the test on their initial testing: pass = at least 80% correct
Procedure: (§1) A study is conducted to determine effect of compositions described herein upon the ability of puppies to learn in a training environment.
(§2) Twelve purebred beagle puppies are randomized and assigned to either Group 1 or Group 2. Each of Groups 1 and 2 contains six of the puppies. Each of the puppies is about nine weeks of age. Their respective weights are appropriate for age and body size.
(§3) Two treatment compositions are utilized for the study. These compositions are: 1) for Group 1, a nutritionally balanced food composition comprising an essential fatty acid component comprising 0.18% DHA, by weight of the composition; and 2) for Group 2, a nutritionally balanced food composition which is similar in all respects except that the essential fatty acid component comprises 0.02% DHA, by weight of the composition.
(§4) Throughout the study, the puppies are fed their respective compositions ad libitum. Treats are utilized for training purposes; the treats which are used are PURINA® Puppy Canned Formula.
Following location training, each puppy receives two days of shape training, wherein the study shapes are randomly placed on different doors simultaneously. The objective is to determine whether the puppy learns that the symbol is associated with the treat target, not the door location. Following this training, each puppy received two testing sessions to determine ability to identify the symbol as the cue. A puppy is determined to pass if at least 80% of the test is correct. Puppies that failed are given two additional days of training and are retested. A puppy is given a maximum of three attempts to pass the multiple shape testing.
Each puppy is randomly assigned a shape of either a square or a circle. The “correct” door is the door bearing the shape which is assigned to the puppy; the location of the “correct” door is systematically modified throughout the study such that the puppy must learn to identify with the shape rather than the location of the door. The puppies are trained for several days in order to learn the process of choosing the “correct” door within a time period of two minutes. Training occurs with various learning procedures, including placing a trail of treats in front of the “correct” door.
After several days of training, the learning procedures are eliminated and the puppy performs without intervention. The puppy is given two minutes to reach the “correct” door. If the puppy fails to reach the “correct” door within the two minute time period, the puppy receives an incorrect score for that attempt. If the puppy reaches the “correct” door within the two minute time period, the puppy receives a correct score for that attempt.

purebred beagle puppies [2] = assay: Maze test of the ability of puppies to learn in a training environment (success criteria); settings: puppy and maternal animal
Procedure: as §1
Ten purebred beagle puppies are randomized and assigned to Group 1 (n=3), Group 2 (n=3), or Group 3 (n=4). Each of the puppies is about nine weeks of age. Their respective weights are appropriate for age and body size.
as §3, with “Three” for “Two”, “about 0.14%” for “0.18%”, “composition;” for “composition; and”, “comprises about 0.08% DHA, by weight of the composition; and 3) for Group 3, a nutritionally balanced food composition which is similar in all respects except that the essential fatty acid component comprises about” for “comprises”
The respective maternal animal for each puppy in Group 1 receives, ad libitum, a nutritionally balanced food composition comprising an essential fatty acid component comprising about 0.14% DHA, by weight of the composition, during gestation, nursing, or weaning (or any combination thereof) of such puppy.
The respective maternal animal for each puppy in Group 2 receives, ad libitum, a nutritionally balanced food composition comprising an essential fatty acid component comprising about 0.08% DHA, by weight of the composition, during gestation, nursing, or weaning (or any combination thereof) of such puppy.
The respective maternal animal for each puppy in Group 3 receives, ad libitum, a nutritionally balanced food composition comprising an essential fatty acid component comprising about 0.02% DHA, by weight of the composition, during gestation, nursing, or weaning (or any combination thereof) of such puppy.
Throughout the study, the puppies are fed their respective compositions twice daily. Treats are utilized for training purposes; the treats which are used are PURINA® Puppy Canned Formula.
The study utilizes a room having a maze constructed in general accordance with the maze illustrated in FIG. 2. Referring now to FIG. 2, Point A Crate is a starting area and contains a crate with a door that cannot be seen through. This crate door is easily opened by a study technician. The crate allows immediate entrance into the maze when the door is opened. The crate door is opened either upward or flat, or by some other means such that the maze path is not obstructed. Point B Maze Symbol contains one of two symbols (i.e., a circle and square) indicating to the trained puppy where the treat will be located. The symbol is attached at a height which is easily visualized by the puppy. Point C Treat Pan is the ending location where the treat pan will be located. Point C Treat Pan is the correct designation for a maze designated left. Point D Treat Pan is the ending location where another treat pan will be located. Point D Treat Pan is the correct designation for a maze designated right.
Prior to training, each puppy is randomly assigned two symbol-direction combinations. The possible groupings are identified below as Groups A and B:
Training with assistance takes place for one week. Each puppy is trained in accordance to whether it is a Group A puppy or a Group B puppy. For Group A puppies, the puppy is trained numerous times to learn that if a treat is placed on the circle at Point B Maze Symbol, then another treat is located to the right at Point D Treat Pan. Likewise, for Group A puppies, the puppy is trained the same number of time to learn that if a treat is placed on the square at Point B Maze Symbol, then another treat is located to the left at Point C Treat Pan. Group B puppies will follow this same outline with the exception that sessions with a circle as the symbol will go to the left and a square as the symbol will go right. […]

purebred beagle puppies [3] = assay: Three-door location training test (assigned door); settings: all puppies regardless of group (0.18% DHA or 0.02% DHA food composition, ad libitum)
Procedure: as §1, §2, §3, §4
The study utilizes three doors of identical size and shape. Each puppy is randomly assigned to one of three doors along with a random symbol (circle or square) for location training. The objective of the study is to train the puppy to reach the “correct” door, i.e. the door bearing the shape which is assigned to the respective puppy. A box is marked with tape in front of each door. […]

[4] = Group 1 (n=6): food composition 0.18% DHA ad libitum
[5] = Group 2 (n=6): food composition 0.02% DHA ad libitum
[6] = Group 1 (n=3): food composition about 0.14% DHA
[7] = Group 2 (n=3): food composition about 0.08% DHA
[8] = Group 3 (n=4): food composition about 0.02% DHA

## CC/C=C\C/C=C\C/C=C\C/C=C\C/C=C\C/C=C\CCC(=O)O [DHA, docosahexaenoic acid]
Purebred beagle puppies [1]; [4]
  puppies that passed following additional training days: 75%
  puppies that passed the test on their initial testing: 50%
Purebred beagle puppies [1]; [5]
  puppies that passed following additional training days: 45%
  puppies that passed the test on their initial testing: 16%
Purebred beagle puppies [2]; [6]
  puppies that achieved a single success criteria: 100%
  puppies that achieved two success criteria: 66%
Purebred beagle puppies [2]; [7]
  puppies that achieved a single success criteria: 66%
  puppies that achieved two success criteria: 0%
Purebred beagle puppies [2]; [8]
  puppies that achieved a single success criteria: 50%
  puppies that achieved two success criteria: 0%
Purebred beagle puppies [3]
  correct scores in locating the assigned location (door): greater than 90%
